How the values were obtained:
Type in all cases: in vivo
Echinochloa crus-galli [1] = assay: Test Example 1: herbicidal effect test by soil treatment in paddy field; details: 120 g/10a, paddy soil treatment just after sowing, 14 days after treatment
In short: (§1)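 In a greenhouse, puddled paddy soil in Wagner pots held ~3 cm flooding over freshly sown seeds. Treatment was dropwise application of the diluted formulation, 120 g a.i. per 10 are, with two replications; suppression was scored from dry weights after 14 days.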

Lindernia pyxidaria [2] = assay: as above; details: 120 g/10a, paddy soil treatment just after sowing, 14 days after treatment
In short: as §1

Monochoria vaginalis [3] = assay: as above; details: 120 g/10a, paddy soil treatment just after sowing, 14 days after treatment
In short: as §1

Scirpus juncoides [4] = assay: as above; details: 120 g/10a, paddy soil treatment just after sowing, 14 days after treatment
In short: as §1

Echinochloa crus-galli [5] = assay: Test Example 2: herbicidal effect test by treatment during growing period in paddy field; details: treatment 7 days after sowing, 120 g/10a, evaluated 14 days after treatment
In short: (§2)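 Read-out is weed suppression (%), 1 − mean dry weight treated/untreated ×100, taken 14 days after treatment with duplicate plots. Treatment: water-diluted emulsifiable concentrate added dropwise to flooded paddy-soil pots 7 days post-sowing at 120 g active ingredient per 10 are.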

Lindernia pyxidaria [6] = assay: as above; details: treatment 7 days after sowing, 120 g/10a, evaluated 14 days after treatment
In short: as §2

Monochoria vaginalis [7] = assay: as above; details: treatment 7 days after sowing, 120 g/10a, evaluated 14 days after treatment
In short: as §2

Scirpus juncoides [8] = assay: as above; details: treatment 7 days after sowing, 120 g/10a, evaluated 14 days after treatment
In short: as §2

Amaranthus viridis [9] = assay: Test Example 3: herbicidal effect test by soil treatment in upland field; details: upland field soil treatment 1 day after sowing; 120 g/10a; evaluated 14 days after treatment
In short: (§3)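 Pre-emergence soil spray applied one day after sowing 20 seeds of each weed into surface soil, dosed at 120 g a.i. per 10 are in 100 L water per 10 are. After 14 days, plants weighed dry; suppression (%) calculated against untreated plots, duplicate plots per concentration.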

Chenopodium album [10] = assay: as above; details: upland field soil treatment 1 day after sowing; 120 g/10a; evaluated 14 days after treatment
In short: as §3

Echinochloa crus-galli [11] = assay: as above; details: upland field soil treatment 1 day after sowing; 120 g/10a; evaluated 14 days after treatment
In short: as §3

crabgrass [12] = assay: as above; details: upland field soil treatment 1 day after sowing; 120 g/10a; evaluated 14 days after treatment
In short: as §3

Amaranthus viridis [13] = assay: Test Example 4: herbicidal effect test by foliage treatment in upland field; details: upland field foliage treatment 7 days after sowing; 120 g/10a; evaluated 14 days after treatment
In short: (§4)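 In this upland pot test, each species is sown at 20 seeds per pot. Spraying follows one week later at a dose of 120 g active ingredient per 10 are. Weed suppression, calculated from average dry weights, is determined 14 days afterward.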

Chenopodium album [14] = assay: as above; details: upland field foliage treatment 7 days after sowing; 120 g/10a; evaluated 14 days after treatment
In short: as §4

Echinochloa crus-galli [15] = assay: as above; details: upland field foliage treatment 7 days after sowing; 120 g/10a; evaluated 14 days after treatment
In short: as §4

crabgrass [16] = assay: as above; details: upland field foliage treatment 7 days after sowing; 120 g/10a; evaluated 14 days after treatment
In short: as §4

SMILES	weed suppression rate, Echinochloa crus-galli (Echinochloa crus-galli [1]) [%]	weed suppression rate, Lindemia pyxidaria (Lindernia pyxidaria [2]) [%]	weed suppression rate, Monochoria vaginalis (Monochoria vaginalis [3]) [%]	weed suppression rate, Scirpus juncoides (Scirpus juncoides [4]) [%]	weed suppression rate, Echinochloa crus-galli (Echinochloa crus-galli [5]) [%]	weed suppression rate, Lindemia pyxidaria (Lindernia pyxidaria [6]) [%]	weed suppression rate, Monochoria vaginalis (Monochoria vaginalis [7]) [%]	weed suppression rate, Scirpus juncoides (Scirpus juncoides [8]) [%]	herbicidal effect (weed suppression rate), Amaranthus viridis (Amaranthus viridis [9]) [%]	herbicidal effect (weed suppression rate), Chenopodium album (Chenopodium album [10]) [%]	herbicidal effect (weed suppression rate), Echinochloa crus-galli (Echinochloa crus-galli [11]) [%]	herbicidal effect (weed suppression rate), Crabgrass (crabgrass [12]) [%]	herbicidal effect (weed suppression rate), Amaranthus viridis (Amaranthus viridis [13]) [%]	herbicidal effect (weed suppression rate), Chenopodium album (Chenopodium album [14]) [%]	herbicidal effect (weed suppression rate), Echinochloa crus-galli (Echinochloa crus-galli [15]) [%]	herbicidal effect (weed suppression rate), Crabgrass (crabgrass [16]) [%]
CC(C)N(C(=O)n1ncn(S(=O)(=O)C2CC2)c1=O)c1cccc(F)c1F [Compound 1-198]	100	100	100	100	100	100	100	80	100	100	100	100	80	80	100	100
CC(C)N(C(=O)n1ncn(S(=O)(=O)C2CC2)c1=O)c1ccc(F)c(F)c1F [Compound 1-203]	100	100	90	100	100	80	100	100	90	60	80	80	100	80	100	100
CCC(C)S(=O)(=O)n1cnn(C(=O)N(c2ccc(F)cc2F)C(C)C)c1=O (stereo not drawn) [Compound 1-101]	90	80	80	90	90	80	80	90	90	80	80	90	90	80	80	90
